Reference: the NIST ThermoML archive (doi:10.1016/j.jct.2005.02.003)

Test: molar heat capacity at constant pressure
Conditions: 101.33 kPa

CC(C)COC(C)(C)C [isobutyl tert-butyl ether]
molar heat capacity at constant pressure [J/K/mol]
Conditions	Crystal	Liquid
140.78 K	140.8	–
141.71 K	142	–
142.63 K	142.5	–
143.56 K	143.4	–
144.49 K	143.5	–
145.41 K	144.2	–
146.33 K	144.7	–
147.24 K	145.3	–
149.06 K	146.4	–
149.71 K	–	210
150 K	147.3	–
150.86 K	147.4	–
151.76 K	148.4	–
151.77 K	–	210.7
152.66 K	149	–
153.55 K	149.9	–
153.82 K	–	211.9
155.87 K	–	212.5
156.22 K	153.2	–
157.08 K	153.7	–
157.9 K	–	213.3
157.95 K	155.8	–
159.92 K	–	214
160 K	152.6	–
161.93 K	–	214.7
162.33 K	153.6	214.8
163.93 K	–	215.4
165.92 K	–	216.2
167.9 K	–	216.8
169.88 K	–	217.5
170 K	–	217.7
171.84 K	–	218.3
173.8 K	–	219.3
175.75 K	–	220.1
177.69 K	–	220.3
179.63 K	–	221.1
180 K	–	221.4
181.56 K	–	221.9
183.49 K	–	222.7
185.4 K	–	223.2
187.31 K	–	224.1
189.21 K	–	224.7
190 K	–	225
191.11 K	–	225.4
193 K	–	226
194.89 K	–	226.8
196.77 K	–	227.4
198.65 K	–	227.8
200 K	–	228.5
200.52 K	–	228.5
201.82 K	–	229.6
202.53 K	–	229.1
203.25 K	–	229.2
203.96 K	–	229.6
204.67 K	–	230.4
205.41 K	–	230.1
206.12 K	–	230.8
206.84 K	–	231.4
207.55 K	–	231.1
208.27 K	–	231.1
208.98 K	–	232.1
209.69 K	–	232
210 K	–	232.1
210.4 K	–	232.3
211.12 K	–	232.6
211.83 K	–	233
212.55 K	–	233.1
213.26 K	–	233.6
213.97 K	–	233.7
214.69 K	–	233.6
215.4 K	–	234.1
216.12 K	–	234.1
216.87 K	–	233.8
217.59 K	–	234.2
218.3 K	–	234.6
219.02 K	–	235.9
219.73 K	–	236
220 K	–	235.8
220.45 K	–	236.2
221.17 K	–	236
221.89 K	–	237
222.6 K	–	237
223.33 K	–	236.7
224.04 K	–	237.6
224.76 K	–	237.8
225.48 K	–	237.8
226.2 K	–	238
226.92 K	–	238.6
227.65 K	–	238.6
228.42 K	–	239.6
229.14 K	–	239.3
229.86 K	–	239.6
230 K	–	239.7
230.59 K	–	239.5
231.31 K	–	240.6
232.04 K	–	240.4
233.48 K	–	240.4
234.2 K	–	240.9
235.65 K	–	242
236.37 K	–	242.7
237.1 K	–	242.3
237.82 K	–	242.2
238.55 K	–	243.6
239.27 K	–	243.4
240 K	–	243.7
240.05 K	–	243.3
240.77 K	–	243.8
241.5 K	–	243.9
242.22 K	–	244.6
242.94 K	–	245.2
243.67 K	–	244.9
244.39 K	–	244.9
245.12 K	–	245.9
246.57 K	–	247
247.3 K	–	245.8
248.03 K	–	247
248.76 K	–	247.9
249.49 K	–	247.9
250 K	–	247.9
250.22 K	–	248.3
251.77 K	–	248
252.51 K	–	248.4
253.24 K	–	249
253.98 K	–	249.8
254.72 K	–	250.5
255.46 K	–	250.1
256.2 K	–	251
256.95 K	–	251.3
257.7 K	–	250.7
258.45 K	–	251.2
259.2 K	–	251.6
259.95 K	–	252.5
260 K	–	252.2
260.71 K	–	252.3
261.46 K	–	252.8
262.22 K	–	253.6
263.85 K	–	253.7
264.62 K	–	254.4
265.39 K	–	254.4
266.16 K	–	255.3
266.93 K	–	255.3
267.7 K	–	255.9
268.48 K	–	256.3
269.26 K	–	256.4
270 K	–	256.6
270.82 K	–	256.8
273.2 K	–	258
274 K	–	258.2
274.8 K	–	258.2
275.61 K	–	258.9
276.58 K	–	259.7
277.39 K	–	259.4
279.03 K	–	261.1
279.86 K	–	261.4
280 K	–	260.9
280.69 K	–	261
282.66 K	–	262.3
283.22 K	–	262.3
284.18 K	–	262.8
284.95 K	–	263.7
285.74 K	–	263.4
287.3 K	–	264
287.56 K	–	264.4
288.43 K	–	264.7
288.86 K	–	264.2
290 K	–	265.2
290.42 K	–	264.9
290.43 K	–	265.6
291.99 K	–	265.5
295.17 K	–	266.9
298.15 K	–	268.7
298.38 K	–	268.5
299.98 K	–	269.1
300 K	–	269.6
301.59 K	–	269.8
303.21 K	–	270.6
304.86 K	–	271.6
306.49 K	–	272.2
308.3 K	–	273.1
309.95 K	–	274
310 K	–	274
311.6 K	–	274.4
313.27 K	–	275.7
314.92 K	–	276.5
316.58 K	–	277.2
318.24 K	–	278.5
319.91 K	–	278.9
320 K	–	278.7
321.57 K	–	279.3
323.26 K	–	280.8
324.94 K	–	281.6
326.61 K	–	282.4
328.29 K	–	283.1
329.99 K	–	283.8
330 K	–	283.7
331.66 K	–	284.7
333.33 K	–	285.5
335.19 K	–	285.9
336.85 K	–	286.8
338.51 K	–	287.9
340 K	–	289
340.16 K	–	289
341.81 K	–	290
343.47 K	–	291.2
345.13 K	–	291.6
346.78 K	–	292.3
348.44 K	–	293
350 K	–	294.5
350.08 K	–	294.6
351.76 K	–	295.7
353.42 K	–	296.9
